Columns and labels:
[1] = target: T1, TRPA1 (Homo sapiens, UniProt O75762); experiment: TRPA1 antagonist FLIPR assay (functional, HEK293 cell-based)
T1 construct: host or cells: HEK293
Experimental: The TRPA1 agonist and antagonist fluorescent imaging plate reader (FLIPR) Assay (functional, HEK293 cell-based) was performed at Eurofins Panlabs, Inc. (St. Charles, MO, USA). The compounds were prepared in assay buffer to the final dilutions 10 and 50 µM. In each experiment, the respective reference compounds were tested: allyl isothiocyanate (the agonist assay) and ruthenium red (the antagonist assay). The […] assays were conducted on a FLIPR^TETRA instrument where the test compounds, vehicle controls, and reference agonists or antagonists were added to the assay plate after a fluorescence baseline was established. The agonist or antagonist incubation during the assay was for a total of 180 s and was used to assess each compound’s ability to activate or inactivate TRPA1. All plates were subjected to appropriate baseline corrections. Once baseline corrections were processed, maximum fluorescence values were exported, and data was manipulated to calculate percentage activation or percentage inhibition. Results showing activity greater than 25% were considered to represent significant effects of test compounds. Experiments were run three times, […].

[2] = test system: MRC-5 cells; experiment: FBS-induced MRC-5 proliferation, alamarBlue assay; type: cell-based, human; details: for inhibition at 50 µM: Homo sapiens, MRC5, read-out: inhibition of FBS-induced MRC-5 proliferation rate; for MRC-5 proliferation [% of control]: 48 h with FBS
Experimental: The normal human lung fibroblast cell line—MRC-5 (ATCC® CCL-171™, Manassas, VA, USA)—was used in the study. Cells were cultured in Eagle’s Minimum Essential Medium (EMEM, ATCC® 30-2003™, Manassas, VA, USA) supplemented with 10% (v/v) fetal bovine serum (FBS; Gibco, Thermo Fisher Scientific, Waltham, MA, USA) and antibiotics mixture (penicillin, streptomycin, amphotericin B; Gibco, Thermo Fisher Scientific, Waltham, MA, USA) (standard culture medium) in standard culture conditions (5% CO2, 37 °C, 95% humidity). Unless otherwise specified, for the experiments, cells were seeded at a final density (5 × 10^3/cm^2) in standard culture medium for 24 h and then cultured in EMEM at reduced serum content (0.5%; v/v) for additional 24 h. TGF-β1 (BD Biosciences, San Jose, CA, USA) was administered at 5 ng/mL concentration in all experiments.
MRC-5 cell viability was evaluated using CytoTox-ONE™ Homogeneous Membrane Integrity Assay (Promega Corporation, Madison, WI, USA) according to the manufacturer’s protocol. The average fluorescence intensity with an excitation wavelength of 560 nm and an emission wavelength of 590 nm was measured using a microplate reader (SpectraMax® iD3, Molecular Devices, San Jose, CA, USA). Experiments were run three times in duplicates. MRC-5 proliferation was determined using the alamarBlue® assay. Cells were seeded for 24 h in standard culture medium, then serum-starved for an additional three days. Evaluated compounds (1-50 µM) were added 1 h prior FBS (10%, v/v) for an additional 48 h. After incubation, the alamarBlue® reagent (Invitrogen, Life Technologies, Carlsbad, CA, USA), dissolved in Hank’s Balanced Salt Solution (10% v/v; Gibco, Thermo Fisher Scientific, Waltham, MA, USA), was added for 30 min. After the observed color change, the supernatant was transferred to 96-well plates, and the absorbance was measured at 570 and 600 nm. The percent difference in reduction between treated and control cells was calculated according to the manufacturer’s protocol. The experiments were run three times in duplicates.

[3] = test system: TGF-β1-induced MRC-5 cells; experiment: Immunofluorescence count of α-SMA positive myofibroblasts; type: cell-based, human; details: 10 µM, 48 h TGF-β1 5 ng/mL
Experimental: For immunocytochemical labeling, MRC-5 cells were seeded on glass coverslips. Study compounds (10 µM) were added 1 h before TGF-β1 treatment, and analysis was performed after 1 h (p-Smad-2 and p-CREB detection) or 48 h (α-SMA detection) of incubation. Cells were fixed in methanol or 4% formaldehyde solution, permeabilized in 0.2% or 0.1% Triton X-100 solution (for p-Smad-2 and p-CREB or α-SMA, respectively). After incubation in blocking solution the following primary antibodies: rabbit polyclonal, anti-phospho-Smad-2 (Ser465, Ser467) antibody (#44-244G, Thermo Fisher Scientific, Waltham, MA, USA); rabbit polyclonal, anti-phospho-CREB1 (Ser133) antibody (#orb213775, Biorbyt, Cambridge, United Kingdom); mouse monoclonal, anti-α-SMA antibody (#MA5-11547, Thermo Fisher Scientific, Waltham, MA, USA) and secondary antibodies: goat anti-rabbit Alexa Fluor 546 conjugated antibody and goat anti-mouse Alexa Fluor 488 conjugated antibody (#A-11010 and #A-11001, respectively, Invitrogen, Carlsbad, CA, USA) were used. Nuclei were counterstained with Hoechst 33342 dye (Thermo Fisher Scientific, Waltham, MA, USA). Slides were mounted in ProLong™ Glass Antifade Mountant (Invitrogen, Carlsbad, CA, USA) and analyzed using Leica DMiL LED Fluo microscope (for α-SMA and p-CREB visualization, 40× objective) or Leica DMi8 with Thunder Imaging System (for p-Smad-2 visualization, 40× objective), all equipped with LAS-X Software (Leica Microsystems GmbH, Wetzlar, Germany). Experiments were run four times using five randomly selected fields of view, at the same fluorescent time exposure and in a blind-folded manner.

T1 sequence (O75762 whole entry, species assumed): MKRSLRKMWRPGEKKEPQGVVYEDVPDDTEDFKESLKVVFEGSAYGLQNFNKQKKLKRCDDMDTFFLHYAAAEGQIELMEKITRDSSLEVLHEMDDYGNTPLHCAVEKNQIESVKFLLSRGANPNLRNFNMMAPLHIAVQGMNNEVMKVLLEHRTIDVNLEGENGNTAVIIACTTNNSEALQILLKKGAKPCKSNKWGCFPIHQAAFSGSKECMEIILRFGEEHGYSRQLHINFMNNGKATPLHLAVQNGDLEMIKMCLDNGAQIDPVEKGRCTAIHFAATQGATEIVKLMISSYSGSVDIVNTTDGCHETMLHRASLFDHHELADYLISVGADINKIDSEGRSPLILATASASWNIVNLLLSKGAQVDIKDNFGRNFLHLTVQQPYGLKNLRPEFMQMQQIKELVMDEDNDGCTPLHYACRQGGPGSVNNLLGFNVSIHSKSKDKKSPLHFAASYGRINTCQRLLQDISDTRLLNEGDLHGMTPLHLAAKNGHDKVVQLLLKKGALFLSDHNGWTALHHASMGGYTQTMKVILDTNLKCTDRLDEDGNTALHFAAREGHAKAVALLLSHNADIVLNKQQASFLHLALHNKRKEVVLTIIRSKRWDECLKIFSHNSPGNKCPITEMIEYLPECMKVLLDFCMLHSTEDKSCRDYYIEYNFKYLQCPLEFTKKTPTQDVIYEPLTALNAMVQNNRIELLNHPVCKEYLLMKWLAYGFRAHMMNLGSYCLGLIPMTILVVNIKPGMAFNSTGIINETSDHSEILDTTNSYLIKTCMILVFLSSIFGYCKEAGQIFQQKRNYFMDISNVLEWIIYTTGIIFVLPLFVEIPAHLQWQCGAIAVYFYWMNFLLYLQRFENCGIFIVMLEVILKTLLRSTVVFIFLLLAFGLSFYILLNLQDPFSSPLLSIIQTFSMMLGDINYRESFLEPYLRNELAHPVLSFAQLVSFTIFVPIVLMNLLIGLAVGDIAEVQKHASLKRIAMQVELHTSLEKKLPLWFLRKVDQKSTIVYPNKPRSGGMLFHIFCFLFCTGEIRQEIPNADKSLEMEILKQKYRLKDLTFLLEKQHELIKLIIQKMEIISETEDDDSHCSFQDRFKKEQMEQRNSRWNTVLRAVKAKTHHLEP

TRPA1 Inhibition (% of control) ([1]; 10 µM)	TRPA1 Inhibition (% of control) ([1]; 50 µM)	Compound	inhibition at 50 µM ([2]; 50 µM) [%]	MRC-5 proliferation [% of control] ([2]; Table S1 (Figure 2B), 1 µM)	MRC-5 proliferation [% of control] ([2]; Table S1 (Figure 2B), 5 µM)	MRC-5 proliferation [% of control] ([2]; Table S1 (Figure 2B), 10 µM)	MRC-5 proliferation [% of control] ([2]; Table S1 (Figure 2B), 15 µM)	MRC-5 proliferation [% of control] ([2]; Table S1 (Figure 2B), 20 µM)	MRC-5 proliferation [% of control] ([2]; Table S1 (Figure 2B), 50 µM)	MRC-5 proliferation [% of control] ([2]; Table S2 (Figure 5B), 1 µM)	MRC-5 proliferation [% of control] ([2]; Table S2 (Figure 5B), 5 µM)	MRC-5 proliferation [% of control] ([2]; Table S2 (Figure 5B), 10 µM)	MRC-5 proliferation [% of control] ([2]; Table S2 (Figure 5B), 50 µM)	number of myofibroblasts (MRC-5 with α-SMA-positive stress fibers); fibroblast to myofibroblast transition [3]
12.4 % of control	8.8 % of control	Cn1c(=O)c2c(nc(NCc3ccco3)n2CCCC(=O)NN=Cc2ccc(O)cc2O)n(C)c1=O [Compound 832, N′-(2,4-dihydroxybenzylidene)-4-(8-((furan-2-ylmethyl)amino)-1,3-dimethyl-2,6-dioxo-1,2,3,6-tetrahydro-7H-purin-7-yl)butanehydrazide]	39	93 % of control	87 % of control	85 % of control	82 % of control	83 % of control	61 % of control	–	–	–	–	decreased
74.9 % of control	98.7 % of control	COc1nc2c(c(=O)n(C)c(=O)n2C)n1CC(=O)Nc1ccc(C(C)(C)C)cc1 [Compound 869, N-(4-(tert-butyl)phenyl)-2-(8-methoxy-1,3-dimethyl-2,6-dioxo-1,2,3,6-tetrahydro-7H-purin-7-yl)acetamide]	25	91 % of control	89 % of control	90 % of control	88 % of control	87 % of control	75 % of control	–	–	–	–	decreased
–	–	CC(C)Cn1c(=O)n(C)c(=O)c2[nH]cnc21 [IBMX, 3-isobutyl-1-methyl-3,7-dihydro-1H-purine-2,6-dione, reference compound]	10	102 % of control	99 % of control	98 % of control	100 % of control	95 % of control	90 % of control	–	–	–	–	–

Compound	TRPA1 Inhibition (% of control) ([1]; 10 µM)	TRPA1 Inhibition (% of control) ([1]; 50 µM)	inhibition at 50 µM ([2]; 50 µM) [%]	MRC-5 proliferation [% of control] ([2]; Table S1 (Figure 2B), 1 µM)	MRC-5 proliferation [% of control] ([2]; Table S1 (Figure 2B), 5 µM)	MRC-5 proliferation [% of control] ([2]; Table S1 (Figure 2B), 10 µM)	MRC-5 proliferation [% of control] ([2]; Table S1 (Figure 2B), 15 µM)	MRC-5 proliferation [% of control] ([2]; Table S1 (Figure 2B), 20 µM)	MRC-5 proliferation [% of control] ([2]; Table S1 (Figure 2B), 50 µM)	MRC-5 proliferation [% of control] ([2]; Table S2 (Figure 5B), 1 µM)	MRC-5 proliferation [% of control] ([2]; Table S2 (Figure 5B), 5 µM)	MRC-5 proliferation [% of control] ([2]; Table S2 (Figure 5B), 10 µM)	MRC-5 proliferation [% of control] ([2]; Table S2 (Figure 5B), 50 µM)	number of myofibroblasts (MRC-5 with α-SMA-positive stress fibers); fibroblast to myofibroblast transition [3]
CCCCOc1nc2c(c(=O)n(C)c(=O)n2C)n1CCCC(=O)Nc1cc(C(C)(C)C)ccc1O [Compound 145, 4-(8-butoxy-1,3-dimethyl-2,6-dioxo-1,2,3,6-tetrahydro-7H-purin-7-yl)-N-(5-(tert-butyl)-2-hydroxyphenyl)butanamide]	12.3 % of control	4.8 % of control	58	104 % of control	91 % of control	84 % of control	74 % of control	72 % of control	42 % of control	93 % of control	84 % of control	83 % of control	46 % of control	the most significant decrease
